These results are taken from PubChem BioAssay AID256 (DTP/NCI, 2004).

The subject of the assay is CD2F1 mice, L1210 leukemia ip, survival T/C. The assay is described as follows: NCI In Vivo Anticancer Drug Screen. Data for tumor model L1210 Leukemia (intraperitoneal) in CD2F1 (CDF1) mice. Conditions: higher = longer survival. An outline of the steps:
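Mice carrying a transplanted tumor received test compound or vehicle alone. The value is the measurement in the treated group divided by that in the vehicle-treated control group.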

The mark [1] stands for this setting: endpoint: mean survival time, dose: 100.0 mg/kg/injection, schedule: Q01DX001 (ip), vehicle: saline with Tween-80.
Setting [2] is: endpoint: mean survival time, dose: 200.0 mg/kg/injection, schedule: Q01DX001 (ip), vehicle: saline with Tween-80.
Setting [3] is: endpoint: mean survival time, dose: 400.0 mg/kg/injection, schedule: Q01DX001 (ip), vehicle: saline with Tween-80.
Where [4] appears, read: endpoint: mean survival time, dose: 50.0 mg/kg/injection, schedule: Q01DX009 (ip), vehicle: saline with Tween-80.
Where [5] appears, read: endpoint: mean survival time, dose: 100.0 mg/kg/injection, schedule: Q01DX009 (ip), vehicle: saline with Tween-80.
Setting [6] is: endpoint: mean survival time, dose: 100.0 mg/kg/injection, schedule: Q04DX003 (ip), vehicle: saline with Tween-80.
The mark [7] stands for this setting: endpoint: mean survival time, dose: 200.0 mg/kg/injection, schedule: Q04DX003 (ip), vehicle: saline with Tween-80.
Where [8] appears, read: endpoint: mean survival time, dose: 400.0 mg/kg/injection, schedule: Q04DX003 (ip), vehicle: saline with Tween-80.

Each structure is given as a SMILES string. “And” between values parts separate entries of the source, which are not always exact repeats. Equal entries are not always repeated. Inconclusive results and toxic doses are left out.

With `CCCCOS(=O)OCCCC`, the T/C runs as follows: under setting [1], 106 % of control; under setting [2], 102 % of control; under setting [3], 97 % of control.
Regarding `CCCSCCSCCC`, the T/C was 103 % of control (endpoint: mean survival time, dose: 25.0 mg/kg/injection, schedule: Q01DX009 (ip), vehicle: saline with Tween-80); 103 % of control under setting [4]; 117 % of control under setting [5].
With `O=C1C=CC(=O)N1c1ccc(O)cc1`, the T/C runs as follows: (endpoint: mean survival time, dose: 1.25 mg/kg/injection, schedule: Q01DX009 (ip), vehicle: saline with Tween-80) 100 % of control; (endpoint: mean survival time, dose: 2.5 mg/kg/injection, schedule: Q01DX009 (ip), vehicle: saline with Tween-80) 98 % of control; (endpoint: mean survival time, dose: 5.0 mg/kg/injection, schedule: Q01DX009 (ip), vehicle: saline with Tween-80) 93 % of control; (endpoint: mean survival time, dose: 5.0 mg/kg/injection, schedule: Q04DX003 (ip), vehicle: saline with Tween-80) 98 % of control.
Turning to `Cc1c(Cl)ccc(Cl)c1Cl`, the T/C (endpoint: mean survival time, dose: 100.0 mg/kg/injection, schedule: Q01DX009 (ip), vehicle: saline sonified) is 105 % of control; the T/C (endpoint: mean survival time, dose: 100.0 mg/kg/injection, schedule: Q04DX003 (ip), vehicle: saline sonified) is 104 % of control; the T/C (endpoint: mean survival time, dose: 200.0 mg/kg/injection, schedule: Q01DX009 (ip), vehicle: saline sonified) is 100 % of control; the T/C (endpoint: mean survival time, dose: 200.0 mg/kg/injection, schedule: Q04DX003 (ip), vehicle: saline sonified) was 101 % of control; the T/C (endpoint: mean survival time, dose: 400.0 mg/kg/injection, schedule: Q01DX009 (ip), vehicle: saline sonified) is 102 % of control; the T/C (endpoint: mean survival time, dose: 400.0 mg/kg/injection, schedule: Q04DX003 (ip), vehicle: saline sonified) was 106 % of control.
On to `CN(C)N=C1CCCCCC1`, for which the T/C by setting is: (endpoint: mean survival time, dose: 75.0 mg/kg/injection, schedule: Q01DX001 (ip), vehicle: saline) 102 % of control; (endpoint: mean survival time, dose: 150.0 mg/kg/injection, schedule: Q01DX001 (ip), vehicle: saline) 98 % of control.
In the case of `CC1(c2ccc3ccccc3c2)OC(=O)c2ccccc21` (centres undefined), the T/C is, setting by setting: (endpoint: median survival time, dose: 12.5 mg/kg/injection, schedule: Q04DX003 (ip), vehicle: saline with Tween-80) 111 % of control; (endpoint: median survival time, dose: 25.0 mg/kg/injection, schedule: Q04DX003 (ip), vehicle: saline with Tween-80) 100 % of control; (endpoint: median survival time, dose: 50.0 mg/kg/injection, schedule: Q04DX003 (ip), vehicle: saline with Tween-80) 111 % of control; (endpoint: median survival time, dose: 100.0 mg/kg/injection, schedule: Q04DX003 (ip), vehicle: saline with Tween-80) 88 % of control.
Consider `CC(C)(C)OC(=O)C(CC(=O)O)=C(c1ccccc1)c1ccccc1`, for which the T/C (endpoint: mean survival time, dose: 100.0 mg/kg/injection, schedule: Q01DX009 (ip), vehicle: Klucel (hydroxypropylcellulose) (HPC)) was 102 % of control; the T/C (endpoint: mean survival time, dose: 100.0 mg/kg/injection, schedule: Q04DX003 (ip), vehicle: Klucel (hydroxypropylcellulose) (HPC)) is 101 % of control; the T/C (endpoint: mean survival time, dose: 200.0 mg/kg/injection, schedule: Q01DX009 (ip), vehicle: Klucel (hydroxypropylcellulose) (HPC)) was 100 % of control; the T/C (endpoint: mean survival time, dose: 200.0 mg/kg/injection, schedule: Q04DX003 (ip), vehicle: Klucel (hydroxypropylcellulose) (HPC)) is 103 % of control; the T/C (endpoint: mean survival time, dose: 400.0 mg/kg/injection, schedule: Q01DX009 (ip), vehicle: Klucel (hydroxypropylcellulose) (HPC)) was 104 % of control; the T/C (endpoint: mean survival time, dose: 400.0 mg/kg/injection, schedule: Q04DX003 (ip), vehicle: Klucel (hydroxypropylcellulose) (HPC)) is 109 % of control.
Turning to `CC(C)(C)C#C/C(=N\Nc1ccc([N+](=O)[O-])cc1[N+](=O)[O-])c1ccccc1`, the T/C under setting [1] is 94 % of control, the T/C under setting [2] was 89 % of control and the T/C under setting [3] was 86 % of control.
In the case of `N#CCc1c(Cl)c(Cl)c(Cl)c(Cl)c1Cl`, the T/C is 103 % of control under setting [6], 103 % of control under setting [7] and 102 % of control under setting [8].
`Nc1ccn(C2CC(N)C(CO)O2)c(=O)n1` (centres undefined): the T/C is 150 % of control (endpoint: median survival time, dose: 5.0 mg/kg/injection, schedule: Q06HX018 (ip), vehicle: water); 154 % of control and 162 % of control (endpoint: median survival time, dose: 10.0 mg/kg/injection, schedule: Q06HX018 (ip), vehicle: water); 198 % of control and 200 % of control (endpoint: median survival time, dose: 20.0 mg/kg/injection, schedule: Q06HX018 (ip), vehicle: water); 152 % of control and 174 % of control (endpoint: median survival time, dose: 40.0 mg/kg/injection, schedule: Q06HX018 (ip), vehicle: water).
As for `COc1cc(CC2c3cc(OC)c(OC)cc3CCN2C)c(Oc2cc3c(cc2OC)-c2c(OC)c(OC)c(OC)c4c2C(C3)N(C)CC4)cc1OC` (centres undefined), the T/C was 95 % of control under setting [4] and 86 % of control under setting [5].
As to `c1ccc(N=C(c2ccccc2)c2ccccc2)cc1`, the T/C is, setting by setting: under setting [6], 103 % of control; under setting [7], 93 % of control; under setting [8], 93 % of control.
As to `CCCCN(CCCC)CC(O)c1cc(-c2cc(C(O)CN(CCCC)CCCC)c3ccccc3n2)nc2ccccc12` (centres undefined), the T/C is 95 % of control under setting [6] and 86 % of control under setting [7].
On to `COc1ccc(NCC(=O)O)c([N+](=O)[O-])c1`, for which the T/C is 91 % of control under setting [6] and 101 % of control under setting [7].
`O=C1CCCCC1C1(O)C(=O)Nc2ccccc21` (centres undefined): the T/C is, setting by setting: under setting [4], 91 % of control; under setting [5], 95 % of control; (endpoint: mean survival time, dose: 200.0 mg/kg/injection, schedule: Q01DX009 (ip), vehicle: saline with Tween-80) 87 % of control.
In the case of `CCOC(=O)Cc1nc2ccccc2[nH]1`, the T/C reads like this: under setting [1], 95 % of control; (endpoint: mean survival time, dose: 100.0 mg/kg/injection, schedule: Q04DX002 (ip), vehicle: saline with Tween-80) 101 % of control; under setting [6], 90 % of control and 102 % of control; under setting [2], 95 % of control; (endpoint: mean survival time, dose: 200.0 mg/kg/injection, schedule: Q04DX002 (ip), vehicle: saline with Tween-80) 93 % of control; under setting [7], 93 % of control and 97 % of control. Further, the T/C is 93 % of control under setting [3]; 95 % of control (endpoint: mean survival time, dose: 400.0 mg/kg/injection, schedule: Q04DX002 (ip), vehicle: saline with Tween-80); 91 % of control under setting [8].
As to `O=NC1C2C=CC(C2)C1Cl` (centres undefined), the T/C reads like this: (endpoint: mean survival time, dose: 100.0 mg/kg/injection, schedule: Q01DX001 (ip), vehicle: saline) 93 % of control; (endpoint: mean survival time, dose: 200.0 mg/kg/injection, schedule: Q01DX001 (ip), vehicle: saline) 88 % of control; (endpoint: mean survival time, dose: 400.0 mg/kg/injection, schedule: Q01DX001 (ip), vehicle: saline) 96 % of control.
On to `O=C(NCc1ccccc1)C1C2CC3OC(=O)C1C3C2` (centres undefined), for which the T/C runs as follows: (endpoint: mean survival time, dose: 12.5 mg/kg/injection, schedule: Q04DX003 (ip), vehicle: saline with Tween-80) 112 % of control; (endpoint: mean survival time, dose: 12.5 mg/kg/injection, schedule: Q04DX003 (ip), vehicle: saline) 106 % of control; (endpoint: mean survival time, dose: 25.0 mg/kg/injection, schedule: Q04DX003 (ip), vehicle: saline with Tween-80) 114 % of control; (endpoint: mean survival time, dose: 25.0 mg/kg/injection, schedule: Q04DX003 (ip), vehicle: saline) 108 % of control; (endpoint: mean survival time, dose: 50.0 mg/kg/injection, schedule: Q04DX003 (ip), vehicle: saline with Tween-80) 114 % of control; (endpoint: mean survival time, dose: 50.0 mg/kg/injection, schedule: Q04DX003 (ip), vehicle: saline) 110 % of control. Further, the T/C was 114 % of control under setting [6] and 108 % of control (endpoint: mean survival time, dose: 100.0 mg/kg/injection, schedule: Q04DX003 (ip), vehicle: saline).
For `CCCC/C=C/C(O)CC` (centres undefined), the T/C runs as follows: under setting [6], 98 % of control; under setting [7], 102 % of control; under setting [8], 96 % of control.
Regarding `OCCN1CCN(CCCN2c3ccccc3Sc3ccc(C(F)(F)F)cc32)CC1`, the T/C (endpoint: mean survival time, dose: 1.49 mg/kg/injection, schedule: Q01DX009 (ip), vehicle: saline) is 110 % of control; the T/C (endpoint: mean survival time, dose: 2.27 mg/kg/injection, schedule: Q01DX009 (ip), vehicle: saline) was 113 % of control; the T/C (endpoint: mean survival time, dose: 3.4 mg/kg/injection, schedule: Q01DX009 (ip), vehicle: saline) is 121 % of control; the T/C (endpoint: mean survival time, dose: 5.0 mg/kg/injection, schedule: Q04DX003 (ip), vehicle: saline) was 116 % of control; the T/C (endpoint: mean survival time, dose: 6.6 mg/kg/injection, schedule: Q04DX003 (ip), vehicle: saline sonified) was 100 % of control; the T/C (endpoint: mean survival time, dose: 6.6 mg/kg/injection, schedule: Q04DX003 (ip), vehicle: saline) is 108 % of control. Besides, the T/C by setting is: (endpoint: mean survival time, dose: 10.0 mg/kg/injection, schedule: Q04DX003 (ip), vehicle: saline sonified) 101 % of control; (endpoint: mean survival time, dose: 10.0 mg/kg/injection, schedule: Q04DX003 (ip), vehicle: saline) 116 % of control; (endpoint: mean survival time, dose: 15.0 mg/kg/injection, schedule: Q04DX003 (ip), vehicle: saline) 114 % of control and 94 % of control; (endpoint: mean survival time, dose: 20.0 mg/kg/injection, schedule: Q04DX003 (ip), vehicle: saline) 106 % of control; (endpoint: mean survival time, dose: 30.0 mg/kg/injection, schedule: Q04DX003 (ip), vehicle: saline) 75 % of control.
